{"source": "ChEMBL document CHEMBL3132838", "about": "“Synthesis of chromenoindole derivatives from Robinia pseudoacacia” (Medchemcomm, 2013)", "key": {"HCT-116 [1]": {"test_system": "HCT-116", "assay": "Cytotoxicity against human p53-positive HCT116 cells assessed as cell viability up to 100 uM after 24 hrs by MTT assay", "format": "functional, cell-based"}, "HL-60 [2]": {"test_system": "HL-60", "assay": "Cytotoxicity against human HL60 cells assessed as cell survival at 200 uM after 72 hrs by MTT assay relative to control", "format": "functional", "conditions": "HL-60, 72 h, read-out: Survival"}, "HL-60 [3]": {"test_system": "HL-60", "assay": "Cytotoxicity against human HL60 cells assessed as cell survival at 40 uM after 72 hrs by MTT assay relative to control", "format": "functional", "conditions": "HL-60, 72 h, read-out: Survival"}, "Steinernema feltiae": {"test_system": "Steinernema feltiae", "assay": "Nematicidal activity against Steinernema feltiae assessed as viability up to 200 uM after 48 hrs by microscopic analysis", "format": "functional"}, "Aromatase": {"biological_target": "T1, Aromatase (Homo sapiens, UniProt P11511)", "T1 sequence (P11511 whole entry)": "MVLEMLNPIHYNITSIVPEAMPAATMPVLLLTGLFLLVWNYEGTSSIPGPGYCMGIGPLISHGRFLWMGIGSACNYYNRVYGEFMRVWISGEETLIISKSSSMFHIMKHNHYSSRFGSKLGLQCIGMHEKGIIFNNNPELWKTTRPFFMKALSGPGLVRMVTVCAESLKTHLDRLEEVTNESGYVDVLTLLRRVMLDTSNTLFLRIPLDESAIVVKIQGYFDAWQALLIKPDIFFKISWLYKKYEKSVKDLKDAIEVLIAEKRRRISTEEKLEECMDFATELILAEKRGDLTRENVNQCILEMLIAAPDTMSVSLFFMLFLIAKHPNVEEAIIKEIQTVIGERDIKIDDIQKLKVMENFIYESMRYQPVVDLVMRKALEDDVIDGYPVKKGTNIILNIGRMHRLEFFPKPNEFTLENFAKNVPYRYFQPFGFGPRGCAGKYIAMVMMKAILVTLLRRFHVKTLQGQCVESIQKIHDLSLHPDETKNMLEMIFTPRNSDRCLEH", "assay": "Inhibition of human placental aromatase"}, "[4]": {"test_system": "Radical scavenging activity", "assay": "Antioxidant activity assessed as DPPH radical scavenging activity", "format": "functional"}, "HCT-116 [5]": {"test_system": "HCT-116", "assay": "Cytotoxicity against human p53-positive HCT116 cells assessed as cell viability after 24 hrs by MTT assay", "format": "functional, cell-based", "conditions": "HCT-116, 24 h"}}, "note": "Active and inactive are the calls of the source. The calls are words filed in the database; no cut-off is given here.", "data": [{"compound": "COc1ccc2c(c1)N[C@H]1c3ccc(O)cc3OC[C@@H]21", "note": "(racemic)", "values": [{"measurement": "Activity", "setting": "HCT-116 [1]", "result": "inactive"}, {"measurement": "viability at 200 µM", "setting": "HL-60 [2]", "result": 27, "unit": "%"}, {"measurement": "viability at 40 µM", "setting": "HL-60 [3]", "result": 72, "unit": "%"}, {"measurement": "Activity", "setting": "Steinernema feltiae", "result": "inactive"}, {"measurement": "IC50", "setting": "Aromatase", "result": "> 300", "unit": "µM"}, {"measurement": "IC50", "setting": "[4]", "result": "> 300", "unit": "µM"}]}, {"compound": "COc1ccc2c3c([nH]c2c1)-c1ccc(O)cc1OC3", "values": [{"measurement": "IC50", "setting": "HCT-116 [5]", "result": 66.1, "unit": "µM"}]}]}
